{
  "source": "patent US12673959B2",
  "about": "“Polysubstituted imidazolo[4,5-c][1,2]thiazine derivative and use thereof” (KYUNGPOOK NATIONAL UNIVERSITY INDUSTRY-ACADEMIC COOPERATION …, priority 2020, dated 2026)",
  "system": "CLP-induced sepsis mouse model",
  "test": "Survival rate in cecal ligation and puncture (CLP)-induced sepsis mouse model",
  "assay_type": "in vivo",
  "settings": "ICR male mice; compound administered intravenously into tail 12 hours and 50 hours after surgery; FIG. 1",
  "experimental": "The anti-inflammatory efficacy of the prepared compound was tested by the survival rate of peritonitis-induced sepsis mouse model. CLP-induced sepsis mouse models were prepared by in vivo methods to verify anti-inflammatory activity, and the preparation method is a widely used experimental method [Wang H, Nat. Med., 2004, 10, 1216-1221]. Forty 6-week-old ICR male mice were divided into 10 mice in each group and the survival rate was observed.\nFirst, the male mice were given respiratory anesthesia using isoflurane, an incision of about 2 cm was made in the middle of the abdomen to take out the appendix adjacent to the intestine, a 5.0. mm portion from the tip of the appendix was ligated with a 3.0-silk suture and pierced once with a 22-gauge needle, and then the incision was closed again with a 4.0-silk suture. Sham mice were sutured without tying or piercing the appendix after incision, and the compound prepared 12 hours and 50 hours after surgery was administered intravenously into mouse tail.",
  "data": [
    {"smiles": "CCN1c2nc(N3CCCC3)n(C)c2C(=O)C(c2ccc(Cl)cc2)S1(=O)=O", "note": "(stereo not shown) [Compound 1-42, 3-(4-chlorophenyl)-1-ethyl-5-methyl-6-(pyrrolidin-1-yl)-3,5-dihydroimidazo[4,5-c][1,2]thiazine-4(1H)-one 2,2-dioxide]", "values": [
      {"measurement": "survival rate of the CLP-induced sepsis mouse model increased compared to a group of which only CLP was performed", "value": 60, "unit": "%"}
    ]}
  ]
}
